From patent US20220389013A1, “PYRIDOPYRIMIDINONE COMPOUNDS AND APPLICATIONS THEREOF” (BeBetter Med Inc., priority 2020, published 2022)

Key:
H358 (KRAS G12C) = assay: Tumor cell proliferation inhibition assay (CellTiter-Glo), H358; format: cell-based, Human; conditions: 10% fetal bovine serum
Method: (§1) The H358, H23 or MIA-Paca2 cells were digested, centrifuged and resuspended, and the cell density was measured with a Scepter automatic cell counter. Cells were diluted to a solution containing 44,000 cells per milliliter, then added to a 96-well culture plate at 90 μL per well. The 96-well plate was placed in a 5% CO2 incubator at 37° C., and after the cells were cultured for 24 hours, different concentrations of the compounds to be tested were added. Cells were incubated with compounds in the presence of 10% fetal bovine serum for 72 hours. The inhibition of cell growth was assessed by measuring ATP levels by using the CellTiter-Glo Luminescent Cell Viability Assay Kit (details in manufacturer's instructions). In brief, 30 μL of CellTiter-Glo reagent was added to each well and the plate was shaken for 10 minutes to induce cell lysis, then the fluorescent signal was detected and recorded with a Fluoroskan Ascent FL (Thermo). Maximum signal values were obtained from cells treated with DMSO for 72 hours. Minimum signal values were obtained with medium only (zero cell number). Inhibition rate %=(maximum signal value-compound signal value)/(maximum signal value-minimum signal value)×100%. Data were processed by using Graphpad prism5 software. IC50 values were calculated using a sigmoidal dose-response curve.

H23 (KRAS G12C) = assay: Tumor cell proliferation inhibition assay (CellTiter-Glo), H23; format: cell-based, Human; conditions: 10% fetal bovine serum
Method: as §1

MIA-Paca2 (KRAS G12C) = assay: Tumor cell proliferation inhibition assay (CellTiter-Glo), MIA-Paca2; format: cell-based, Human; conditions: 10% fetal bovine serum
Method: as §1

KRAS-G12C/SOS1 = target: T1, KRAS-G12C/SOS1 (Homo sapiens, UniProt P01116, G12C); assay: HTRF KRAS-G12C/SOS1 binding assay; conditions: 2 hours room temperature
T1 construct: purchased Cisbio #63ADK000CB16PEG

[1] = Pharmacokinetic (PK) experiment in rats by gavage; format: in vivo; conditions: rat, plasma, po, male SD rats, 20 mg/kg; for AUC(0-t): read-out: AUC0-24
Method: Male SD rats, weighing 180-250 g, were fasted overnight before the test and stomach administrated with the test compound at 20 mg/kg. 15 minutes, 30 minutes, and 1, 2, 4, 6, 8, and 24 hours after administration, blood was taken from the end of the tail of the fracture, about 0.3 mL per time point, then placed in a centrifuge tube containing K2-EDTA, and centrifuged (2000 g, 10 min, at 4° C.). Plasma was collected and stored in an ultra-low temperature freezer at −80° C. 50 μL of plasma samples were vortexed with 135 μL of acetonitrile (containing 1 μg/mL internal standard) for protein precipitation and centrifuged, and the supernatant was collected for LC-MS/MS analysis.
After the rats oral administrated with the Pyridopyrimidinone compounds provided by the present disclosure, the absorption is good, and the blood exposure is relatively high. […] Cmax refers to the maximum plasma concentration, T1/2 is the half-life, AUC0-24 refers to the area under the 0-24 hour time-concentration curve, and AUC0-inf refers to the area under the 0-Inf time-concentration curve.

T1 sequence (P01116 1-188 isoform P01116-2 G12C): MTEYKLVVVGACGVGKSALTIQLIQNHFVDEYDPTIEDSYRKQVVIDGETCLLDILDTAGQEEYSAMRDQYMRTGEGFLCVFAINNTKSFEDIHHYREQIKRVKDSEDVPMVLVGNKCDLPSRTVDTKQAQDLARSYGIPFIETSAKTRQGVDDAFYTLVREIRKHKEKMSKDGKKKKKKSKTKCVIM

IC50 (H358 (KRAS G12C); Homo sapiens, NCI-H358, 72 h) [nM]	IC50 (MIA-Paca2 (KRAS G12C); Homo sapiens, MIA PaCa-2, 72 h) [nM]	SMILES	IC50 (H358 (KRAS G12C); 72 hours) [nM]	IC50 (H23 (KRAS G12C); 72 hours) [nM]	IC50 (MIA-Paca2 (KRAS G12C); 72 hours) [nM]	melting point [°C]	further results
		C=CC(=O)N1CCN(c2nc(=O)n(-c3c(C)ccnc3C(C)C)c3nc(-c4c(F)c(F)cc5ccoc45)c(F)cc23)[C@@H](C)C1 [Compound 74, 4-((S)-4-acryloyl-2-methylpiperazin-1-yl)-7-(5,6-difluorobenzofuran-7-yl)-6-fluoro-1-(2-isopropyl-4-methylpyridin-3-yl)pyrido[2,3-d]pyrimidin-2(1H)-one]	10 to 50	< 10	50 to 100		
50 to 100	100 to 500	C=CC(=O)N1CCN(c2nc(=O)n(-c3c(C)ccnc3C(C)C)c3nc(-c4c(F)ccc5ccoc45)c(Cl)cc23)[C@@H](CC)C1 [Compound 99, 4-((S)-4-acryloyl-2-ethylpiperazin-1-yl)-6-chloro-7-(6-fluorobenzofuran-7-yl)-1-(2-isopropyl-4-methylpyridin-3-yl)pyrido[2,3-d]pyrimidin-2(1H)-one]					IC50 (H23 (KRAS G12C); Homo sapiens, 72 h): < 10 nM
		C=CC(=O)N1C[C@H](C)N(c2nc(=O)n(-c3c(C)ccnc3C(C)C)c3nc(-c4c(F)c(F)cc5ccoc45)c(Cl)cc23)C[C@H]1C [Compound 104, 4-((2S,5R)-4-acryloyl-2,5-dimethylpiperazin-1-yl)-6-chloro-7-(5,6-difluorobenzofuran-7-yl)-1-(2-isopropyl-4-methylpyridin-3-yl)pyrido[2,3-d]pyrimidin-2(1H)-one]	< 10		10 to 50		AUC(0-inf) [1]: 13000 ng·h/mL; Cmax [1]: 2110 ng/mL; Tmax [1]: 2 h; half-life [1]: 2.46 h; AUC(0-t) [1]: 13000 ng·h/mL; IC50 (H23 (KRAS G12C); Homo sapiens, 72 h): < 10 nM
		C=CC(=O)N1C[C@H](C)N(c2nc(=O)n(-c3c(C)ccnc3C(C)C)c3nc(-c4c(F)c(F)cc5ccoc45)c(F)cc23)C[C@H]1C [Compound 91, 4-((2S,5R)-4-acryloyl-2,5-dimethylpiperazin-1-yl)-7-(5,6-difluorobenzofuran-7-yl)-6-fluoro-1-(2-isopropyl-4-methylpyridin-3-yl)pyrido[2,3-d]pyrimidin-2(1H)-one]	10 to 50	< 10	50 to 100		
		C=CC(=O)N1C[C@H](C)N(c2nc(=O)n(-c3c(C)ccnc3C(C)C)c3nc(-c4c(F)ccc5ccoc45)c(Cl)cc23)C[C@H]1C (atropisomer, axis not shown; (P)) [Compound 90-2, 4-((2S,5R)-4-acryloyl-2,5-dimethylpiperazin-1-yl)-6-chloro-7-(6-fluorobenzofuran-7-yl)-1(P)-(2-isopropyl-4-methylpyridin-3-yl)pyrido[2,3-d]pyrimidin-2(1H)-one]	50 to 100	< 10	50 to 100	152 to 161	
		C=CC(=O)N1CCN(c2nc(=O)n(-c3c(C)ccnc3C(C)C)c3nc(-c4c(F)c(F)cc5ccoc45)c(Cl)cc23)[C@@H](C)C1 (atropisomer, axis not shown; (P)) [Compound 103-2, 4-((S)-4-acryloyl-2-methylpiperazin-1-yl)-6-chloro-7-(5,6-difluorobenzofuran-7-yl)-1(P)-(2-isopropyl-4-methylpyridin-3-yl)pyrido[2,3-d]pyrimidin-2(1H)-one]	100 to 500	10 to 50	100 to 500		
50 to 100	100 to 500	C=CC(=O)N1CCN(c2nc(=O)n(-c3c(C)ccnc3C(C)C)c3nc(-c4c(OC)ccc5ccoc45)c(F)cc23)[C@@H](C)C1 [Compound 109, 4-((S)-4-acryloyl-2-methylpiperazin-1-yl)-6-fluoro-1-(2-isopropyl-4-methylpyridin-3-yl)-7-(6-methoxybenzofuran-7-yl)pyrido[2,3-d]pyrimidin-2(1H)-one]				156 to 158	
		C=CC(=O)N1CCN(c2nc(=O)n(-c3c(C)ccnc3C(C)C)c3nc(-c4c(F)c(F)cc5ccoc45)c(F)cc23)[C@@H](C)C1 (atropisomer, axis not shown; (P)) [Compound 74-2, 4-((S)-4-acryloyl-2-methylpiperazin-1-yl)-7-(5,6-difluorobenzofuran-7-yl)-6-fluoro-1(P)-(2-isopropyl-4-methylpyridin-3-yl)pyrido[2,3-d]pyrimidin-2(1H)-one]	> 500	100 to 500	> 500		
		C=CC(=O)N1C[C@H](C)N(c2nc(=O)n(-c3c(C)ccnc3C(C)C)c3nc(-c4c(F)c(F)cc5ccoc45)c(Cl)cc23)C[C@H]1C (atropisomer, axis not shown; (P)) [Compound 104-2, 4-((2S,5R)-4-acryloyl-2,5-dimethylpiperazin-1-yl)-6-chloro-7-(5,6-difluorobenzofuran-7-yl)-1(P)-(2-isopropyl-4-methylpyridin-3-yl)pyrido[2,3-d]pyrimidin-2(1H)-one]	100 to 500	10 to 50	100 to 500	153 to 162	
50 to 100	100 to 500	C=CC(=O)N1CCN(c2nc(=O)n(-c3c(C)ncnc3C(C)C)c3nc(-c4c(F)ccc5ccoc45)c(F)cc23)[C@@H](C)C1 [Compound 116, 4-((S)-4-acryloyl-2-methylpiperazin-1-yl)-6-fluoro-7-(6-fluorobenzofuran-7-yl)-1-(4-isopropyl-6-methylpyrimidin-5-yl)pyrido[2,3-d]pyrimidin-2(1H)-one]				143 to 146	
		C=CC(=O)N1C[C@H](C)N(c2nc(=O)n(-c3c(C)ccnc3C(C)C)c3nc(-c4c(F)c(F)cc5ccoc45)c(F)cc23)C[C@H]1C (atropisomer, axis not shown; (P)) [Compound 91-2, 4-((2S,5R)-4-acryloyl-2,5-dimethylpiperazin-1-yl)-7-(5,6-difluorobenzofuran-7-yl)-6-fluoro-1(P)-(2-isopropyl-4-methylpyridin-3-yl)pyrido[2,3-d]pyrimidin-2(1H)-one]	> 500	50 to 100	> 500	161 to 173	
		C=CC(=O)N1CCN(c2nc(=O)n(-c3c(C)ccnc3C(C)C)c3nc(-c4c(F)c(F)cc5ccoc45)c(Cl)cc23)[C@@H](C)C1 [Compound 103, 4-((S)-4-acryloyl-2-methylpiperazin-1-yl)-6-chloro-7-(5,6-difluorobenzofuran-7-yl)-1-(2-isopropyl-4-methylpyridin-3-yl)pyrido[2,3-d]pyrimidin-2(1H)-one]	< 10		10 to 50		AUC(0-inf) [1]: 9420 ng·h/mL; Cmax [1]: 3310 ng/mL; Tmax [1]: 1 h; half-life [1]: 3.77 h; AUC(0-t) [1]: 9400 ng·h/mL; IC50 (H23 (KRAS G12C); Homo sapiens, 72 h): < 10 nM
< 10	10 to 50	C=CC(=O)N1CCN(c2nc(=O)n(-c3c(C#N)cccc3C(C)C)c3nc(-c4c(F)ccc5ccoc45)c(Cl)cc23)[C@@H](C)C1 [Compound 124, 2-(4-((S)-4-acryloyl-2-methylpiperazin-1-yl)-6-chloro-7-(6-fluorobenzofuran-7-yl)-2-oxopyrido[2,3-d]pyrimidin-1(2H)-yl)-3-isopropylbenzonitrile]				164 to 166	

SMILES	IC50 (H358 (KRAS G12C); Homo sapiens, NCI-H358, 72 h) [nM]	IC50 (MIA-Paca2 (KRAS G12C); Homo sapiens, MIA PaCa-2, 72 h) [nM]	IC50 (H358 (KRAS G12C); 72 hours) [nM]	IC50 (H23 (KRAS G12C); 72 hours) [nM]	IC50 (MIA-Paca2 (KRAS G12C); 72 hours) [nM]	melting point [°C]	further results
C=CC(=O)N1CCN(c2nc(=O)n(-c3c(C)ccnc3C(C)C)c3nc(-c4c(F)ccc5ccoc45)c(F)cc23)[C@@H](C)C1 [Compound 70, 4-((S)-4-acryloyl-2-methylpiperazin-1-yl)-6-fluoro-7-(6-fluorobenzofuran-7-yl)-1-(2-isopropyl-4-methylpyridin-3-yl)pyrido[2,3-d]pyrimidin-2(1H)-one]	10 to 50	10 to 50					IC50 (KRAS-G12C/SOS1): 100 to 500 nM
C=CC(=O)N1C[C@H](C)N(c2nc(=O)n(-c3c(C)ccnc3C(C)C)c3nc(-c4c(F)ccc5ccoc45)c(F)cc23)C[C@H]1C [Compound 89, 4-((2S,5R)-4-acryloyl-2,5-dimethylpiperazin-1-yl)-6-fluoro-7-(6-fluorobenzofuran-7-yl)-1-(2-isopropyl-4-methylpyridin-3-yl)pyrido[2,3-d]pyrimidin-2(1H)-one]	10 to 50				10 to 50	147 to 149	AUC(0-inf) [1]: 14100 ng·h/mL; Cmax [1]: 4300 ng/mL; Tmax [1]: 1 h; half-life [1]: 2.11 h; AUC(0-t) [1]: 14000 ng·h/mL
